Results as given in patent US20170029451A1, “BRANCHED CHAIN ACYCLIC NUCLEOSIDE PHOSPHONATE ESTERS AND METHODS OF SYNTHESIS AND USES THEREOF” (CHIMERIX, INC., priority 2013, published 2017).
pEC50: −log10 of the molar value. Like-named read-outs stand apart in the source and are kept apart here.

Columns and labels:
[1] = test system: Vaccinia Virus (Strain Copenhagen); experiment: microbe, parasite or virus in culture; type: cell-based; settings: Orthopoxvirus vaccinia, Fibroblast, read-out: VACV EC50, μM
[2] = test system: Cowpox Virus (Strain Brighton); experiment: microbe, parasite or virus in culture; type: cell-based; settings: Fibroblast, read-out: CPXV EC50, μM
[3] = in vitro; settings: human
[4] = test system: human foreskin fibroblast cells; experiment: Neutral red cytotoxicity assay in human foreskin fibroblast cells; settings: read-out: VACV CC50, μm, parallel to VACV assay (second printing of Table 4)
[5] = test system: HCMV (Strain AD169); experiment: Plaque reduction assay, HCMV AD169 in human foreskin fibroblast cells; type: cell-based, Human Cytomegalovirus (HCMV); settings: Human betaherpesvirus 5, AD169, Fibroblast
[6] = test system: Influenza virus A/CA/10/2009; experiment: microbe, parasite or virus in culture; type: cell-based; settings: unidentified influenza virus, MDCK, read-out: A/CA/10/2009 (EC50, μM)
[7] = test system: Influenza virus B/FL/4/2006; experiment: microbe, parasite or virus in culture; type: cell-based; settings: unidentified influenza virus, MDCK, read-out: B/FL/4/2006 (EC50, μM)
[8] = in vitro; settings: dog
[9] = test system: HCMV UL54 resistant mutant D542E (HDP-CDV^R); experiment: microbe, parasite or virus in culture; type: cell-based, Human Cytomegalovirus (HCMV); settings: Human betaherpesvirus 5, Fibroblast
[10] = test system: HCMV UL54 resistant mutant GDG^RP53; experiment: microbe, parasite or virus in culture; type: cell-based, Human Cytomegalovirus (HCMV); settings: Human betaherpesvirus 5, Fibroblast
[11] = test system: HCMV UL54 resistant mutant 4955^R; experiment: microbe, parasite or virus in culture; type: cell-based, Human Cytomegalovirus (HCMV); settings: Human betaherpesvirus 5, Fibroblast
[12] = test system: Human Cytomegalovirus (HCMV); experiment: HCMV EC50 in MRC-5 cells (qPCR of intracellular CMV DNA); type: cell-based; settings: Human betaherpesvirus 5, MRC5
Description: Costar 96-well tissue culture plates were seeded with 20,000 MRC-5 cells/well in EMEM containing 2% Hyclone Standard Fetal Bovine Serum and 1% Hyclone Penicillin and Streptomycin. Outer wells were not used to minimize the edge-effect produced by extended incubations. Cells were inoculated with HCMV at an MOI of 0.01. Serial dilutions of test compounds were added to the cells and plates were incubated for 7 days at 37° C. in 5% CO2. […] Culture medium was gently removed from infected cells after the 7-day incubation. The cells were rinsed twice with ice-cold PBS, and then freeze/thawed once. Each well was incubated with 200 μL lysis buffer for 2 hours at 55° C. Lysis buffer included 0.5 mg/mL protease K, 50 mM KCl, 10 mM Tris-Cl pH 8.0, 2.5 mM MgCl2, 0.45% IGEPAL, and 0.45% Tween-20 dissolved in DEPC-treated water. Intracellular CMV DNA was measured by quantitative polymerase chain reaction (qPCR) using forward and reverse HCMV PCR primers, and a FAM-labeled probe. Absolute quantitation of viral copy number was performed using a standard curve with dilutions of a HCMV DNA amplicon containing sequences homologous to the amplified fragment. The following qPCR amplification conditions were used: 1 cycle at 95° C. for 10 minutes, followed by 45 cycles of 95° C. for 15 seconds and 60° C. for 60 seconds. The qPCR reactions were performed using an Applied Biosystems 7500 real Time PCR System. Gen 5 software (BioTek Instruments, Inc.) was used to calculate the concentration which inhibited the viral DNA levels of HCMV-infected MRC-5 cells by 50% (EC50).

[13] = test system: BKV (Gardner strain); experiment: BKV EC50 in Vero cells (qPCR of supernatant BKV DNA); type: cell-based, BK virus (BKV); settings: Betapolyomavirus hominis; BKV in Vero cells (Table 7); read-out: BKV EC50
Description: Costar 96-well tissue culture plates were seeded with 10,000 Vero cells/well in DMEM containing 2% Hyclone Standard Fetal Bovine Serum (FBS, Cat 5H30088.03) and 1% Hyclone Penicillin and Streptomycin. Outer wells were not used to minimize the edge-effect produced by extended incubations. Cells were inoculated with 115 BKV DNA copies/cell (ATCC, Gardner strain). Serial dilutions of test compounds were added to the cells and plates were incubated for 10 days at 37° C. in 5% CO2. After the 10-day incubation, 50 μL supernatant was mixed with 50 μL 2× lysis buffer that provided a final concentration 0.5 mg/mL protease K, 50 mM KCl, 10 mM Tris-Cl pH 8.0, 2.5 mM MgCl2, 0.45% IGEPAL, and 0.45% Tween-20 dissolved in DEPC-treated water. Each plate was incubated for 2 hours at 55° C. Supernatant BKV DNA was measured by quantitative polymerase chain reaction (qPCR) using forward and reverse BKV PCR primers, and a FAM-labeled probe. Absolute quantitation of viral copy number was performed using a standard curve with dilutions of a BKV DNA amplicon containing sequences homologous to the amplified fragment. The following qPCR amplification conditions were used: 1 cycle at 95° C. for 10 minutes, followed by 45 cycles of 95° C. for 15 seconds and 60° C. for 60 seconds. The qPCR reactions were performed using an Applied Biosystems 7500 real Time PCR System. Gen 5 software (BioTek Instruments, Inc.) was used to calculate the concentration which inhibited the viral DNA levels of BKV-infected Vero cells by 50% (EC50).

[14] = Cytotoxicity (CC50) in MT4 cells; type: cell-based; settings: human
Description: Costar 96-well tissue culture plates were seeded with 5,000 MT4 cells (NIH AIDS Reagents Program)/well in RPMI (Lonza, Cat 12-11F) containing 10% Hyclone Standard Fetal Bovine Serum (FBS, Cat 5H30088.03), 1% Hyclone Penicillin and Streptomycin (Cat SV30010), and 2 mM Lonza L-Glutamine (Cat 17-605E). Outer wells were not used to minimize the edge-effect produced by extended incubations. Serial dilutions of test compounds were added to the cells and plates were incubated for 6 days at 37° C. in 5% CO2. After 6 days of incubation 40 μL of Cell Titer 96® Aqueous MTS Reagent (Promega, G111) was added as directed by manufacturer to the 200 μL media in each well and incubated at 37° C. until the untreated-cell controls developed an 490 nm absorbance between 1.1 and 1.8. The final absorbance readings were read using a BioTek Synergy 2, and Gen 5 software (BioTek Instruments, Inc.) was used to calculate the concentration which inhibited MT4 cells by 50% (CC50).

[15] = test system: Herpes Simplex Virus 1 (Strain E-377); experiment: Plaque reduction assay, HSV-1 in human foreskin fibroblast cells; type: cell-based; settings: Human alphaherpesvirus 1; Strain E-377, human foreskin fibroblast cells
[16] = test system: Epstein-Barr virus; experiment: DNA Hybridization Assay for EBV in Akata cells; type: cell-based; settings: human gammaherpesvirus 4, read-out: Efficacy DNA Hybridization Assay (EC50)
Description: Akata cells latently infected with EBV were obtained from John Sixbey. The GS strain of HHV-6A was obtained through the NIH AIDS Research and Reference Reagent Program.
Each experiment that evaluated the antiviral activity of the compounds included both positive and negative control compounds to ensure the performance of each assay. Concurrent assessment of cytotoxicity was also performed for each study at equivalent levels of compound exposure. When sufficient material was available, multiple assays were performed for each compound evaluation to obtain statistical data.
Assays for EBV were performed in Akata cells that were induced to undergo a lytic infection with 50 μg/ml of a goat anti-human IgG antibody by standard methods. Experimental compounds were diluted in round bottom 96-well plates to yield concentrations ranging from 20 to 0.016 μM. Akata cells were added to the plates at a concentration of 4×10^4 cells per well and incubated for 72 h. For HHV-6 assays, compounds were serially diluted in 96-well plates then 1×10^4 uninfected HSB-2 or Molt-3 cells were added to each well. Infection was initiated by adding HHV-6A infected HSB-2 cells, or HHV-6B infected Molt-3 cells, at a ratio of approximately 1 infected cell for every 10 uninfected HSB-2 cells or Molt-3 cells respectively and incubated for 7 d at 37° C. […]

[17] = in vitro; settings: human; remark: listed apart in the source
[18] = Mean XC50 (Table 9), read-out: HCMV EC50
[19] = Mean XC50 (Table 9), read-out: MT4 cytotoxicity CC50

## Nc1ccn(C[C@@H](CO)OCP(=O)(O)O)c(=O)n1 [Cidofovir, reference compound]
[1]
  EC50: 22.4 µM
[2]
  EC50: 30.5 µM
[3]; CPXV CC50, μM, Human Foreskin Fibroblast Cells, parallel to CPXV assay
  CC50: > 300 µM
[4]
  CC50: > 300 µM

## Nc1nc(O)c2ncn(COC(CO)CO)c2n1 [Ganciclovir, reference compound]
[5]; Strain AD169, human foreskin fibroblast cells, read-out: HCMV EC50
  pEC50: 5.82
[3]
  CC50: > 100 µM

## CCOC(=O)C1=C[C@@H](OC(CC)CC)[C@H](NC(C)=O)[C@@H](N)C1 [Oseltamivir, reference compound]
[6]
  EC50: 0.17 µM
[7]
  EC50: 16.2 µM
[8]
  CC50: > 20 µM

## CCCCCCCCCCCCCCCCOCCCOP(=O)(O)CO[C@H](CO)Cn1ccc(N)nc1=O [HDP-CDV, Hexadecyloxypropyl-Cidofovir, reference compound]
[5]; Virus AD169, human foreskin fibroblast cells (Table 3), read-out: EC50
  pEC50: 9.00
[9]; read-out: EC50 μM, Virus D542E (HDP-CDV^R), human foreskin fibroblast cells
  EC50: 0.0295 µM
[9]; read-out: EC90 μM
  EC90: 0.153 µM
[10]; read-out: EC50 μM, Virus GDG^RP53, human foreskin fibroblast cells
  EC50: 0.0053 µM
[10]; read-out: EC90 μM
  EC90: 0.0316 µM
[11]; read-out: EC50 μM, Virus 4955^R, human foreskin fibroblast cells
  EC50: 0.0013 µM
[11]; read-out: EC90 μM
  EC90: 0.006 µM
[12]; HCMV in MRC-5 cells (Table 7), read-out: CMV EC50
  pEC50: 9.40
[12]; [18]
  pEC50: 9.52
[13]
  pEC50: 7.74
[14]; MT4 cells (Table 7), read-out: MT4 CC50
  CC50 at 6 days: 60 nM
[14]; [19]
  CC50 at 6 days: 60 nM

## Nc1nc2c(ncn2COCCO)c(=O)[nH]1 [Acyclovir, reference compound]
[15]
  pEC50: 5.66
[16]
  pEC50: 5.15
[3]
  CC50: > 100 µM
[17]
  CC50: > 100 µM

## CCCCCCCCCCCCCCCCOCCCOP(=O)(O)CO[C@H](CO)Cn1ccc(=O)[nH]c1=O [Compound 24]
[12]; [18]
  pEC50: 8.10
[14]; [19]
  CC50 at 6 days: 13500 nM
